According to the supplement of paper PMC10627819:

How the values were obtained:
[1] = tested on: B. subtilis 168; assay: fitness (endpoint OD595 vs no drug) (fraction); higher = more growth
Method in brief: (§1)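 Plates with 384 wells were inoculated at OD595 0.01 using 30 µl of TSB, LB Lennox or CY, or 55 µl for S. pneumoniae. Incubation was at 37 °C, with OD595 measured every 30 min for 14 h. Fitness is the stationary-phase transition optical density over the robust mean of no-drug control wells, after first-reading background subtraction; it is capped at 1.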

[2] = tested on: S. aureus Newman; assay: as above
Method in brief: as §1

[3] = tested on: S. pneumoniae D39V; assay: as above
Method in brief: as §1

[4] = tested on: B. subtilis 168; assay: Bliss interaction score (quartile over a dose matrix) (fitness difference); higher = more antagonism (negative = synergy)
Method in brief: (§2)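 At entry into stationary phase, OD595 was recorded and divided by the robust mean of the no-drug wells on that plate, with any value above 1 set to 1. This gives the fitness measure used throughout. Single-drug fitness was inferred from combination data, and the Bliss score, observed minus product-expected fitness, is shown as quartiles across technical, biological and donor/recipient replicates.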

[5] = tested on: S. aureus DSM 20231; assay: as above
Method in brief: as §2

[6] = tested on: S. aureus Newman; assay: as above
Method in brief: as §2

[7] = tested on: S. pneumoniae D39V; assay: as above
Method in brief: as §2
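For Bliss interaction score (quartile over a dose matrix) in this document: first quartile when negative (synergy) and third quartile when positive (antagonism).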

O=C(O)c1cn(C2CC2)c2cc(N3CCNCC3)c(F)cc2c1=O [Ciprofloxacin] + CCC[C@@H]1C[C@@H](C(=O)N[C@@H]([C@H]2O[C@H](SC)[C@H](O)[C@@H](O)[C@H]2O)[C@H](C)Cl)N(C)C1 [Clindamycin]
fitness, one replicate
Settings	partner 0.0039 µg/mL	partner 0.0078 µg/mL	partner 0.015 µg/mL	partner 0.0156 µg/mL	partner 0.03 µg/mL	partner 0.06 µg/mL
[1], first compound 0.0098 µg/mL	≥ 1	0.403	–	0.818	–	–
[1], first compound 0.0195 µg/mL	0.903	0.394	–	0.742	–	–
[1], first compound 0.039 µg/mL	0.627	0.326	–	0.557	–	–
[3], first compound 0.25 µg/mL	–	–	0.708	–	0.454	0.259

Settings	fitness
[1], first compound 0.0098 µg/mL, partner 0.0625 µg/mL	0.508
[1], first compound 0.0098 µg/mL, partner 0.125 µg/mL	0.394
[1], first compound 0.0098 µg/mL, partner 0.25 µg/mL	0.373
[1], first compound 0.0195 µg/mL, partner 0.0625 µg/mL	0.416
[1], first compound 0.0195 µg/mL, partner 0.125 µg/mL	0.337
[1], first compound 0.0195 µg/mL, partner 0.25 µg/mL	0.312
[1], first compound 0.039 µg/mL, partner 0.0625 µg/mL	0.39
[1], first compound 0.039 µg/mL, partner 0.125 µg/mL	0.311
[1], first compound 0.039 µg/mL, partner 0.25 µg/mL	0.303
[2], first compound 0.0375 µg/mL, partner 0.0312 µg/mL	0.545
[2], first compound 0.0375 µg/mL, partner 0.0625 µg/mL	0.425
[2], first compound 0.0375 µg/mL, partner 0.125 µg/mL	0.11
[2], first compound 0.075 µg/mL, partner 0.0312 µg/mL	0.604
[2], first compound 0.075 µg/mL, partner 0.0625 µg/mL	0.475
[2], first compound 0.075 µg/mL, partner 0.125 µg/mL	0.153
[2], first compound 0.15 µg/mL, partner 0.0312 µg/mL	0.335
[2], first compound 0.15 µg/mL, partner 0.0625 µg/mL	0.292
[2], first compound 0.15 µg/mL, partner 0.125 µg/mL	0.104
[3], first compound 0.125 µg/mL, partner 0.0125 µg/mL	0.763
[3], first compound 0.125 µg/mL, partner 0.015 µg/mL	0.8
[3], first compound 0.125 µg/mL, partner 0.025 µg/mL	0.531
[3], first compound 0.125 µg/mL, partner 0.03 µg/mL	0.54
[3], first compound 0.125 µg/mL, partner 0.05 µg/mL	0.2
[3], first compound 0.125 µg/mL, partner 0.06 µg/mL	0.325
[3], first compound 0.25 µg/mL, partner 0.0125 µg/mL	0.733
[3], first compound 0.25 µg/mL, partner 0.025 µg/mL	0.494
[3], first compound 0.25 µg/mL, partner 0.05 µg/mL	0.168
[3], first compound 0.5 µg/mL, partner 0.0125 µg/mL	0.636
[3], first compound 0.5 µg/mL, partner 0.015 µg/mL	0.564
[3], first compound 0.5 µg/mL, partner 0.025 µg/mL	0.434
[3], first compound 0.5 µg/mL, partner 0.03 µg/mL	0.431
[3], first compound 0.5 µg/mL, partner 0.05 µg/mL	0.158
[3], first compound 0.5 µg/mL, partner 0.06 µg/mL	0.294

Settings	Bliss interaction score
[4]	0.226
[5]	0.0603
[6]	0.157
[7]	0.061

O=C(O)c1cn(C2CC2)c2cc(N3CCNCC3)c(F)cc2c1=O [Ciprofloxacin] + CCN(CC)CCOC(=O)c1ccc(N)cc1 [Procaine]
fitness
Settings	partner 85.5 µg/mL	partner 171 µg/mL	partner 342 µg/mL
[1], first compound 0.0098 µg/mL	0.883	0.918	0.918
[1], first compound 0.0195 µg/mL	0.688	0.755	0.721
[1], first compound 0.039 µg/mL	0.0386	0.0363	0.0396
[2], first compound 0.0375 µg/mL	0.65	0.644	0.635
[2], first compound 0.075 µg/mL	0.658	–	–
[3], first compound 0.125 µg/mL	≥ 1	≥ 1	≥ 1
[3], first compound 0.25 µg/mL	0.9	0.923	0.91

Settings	Bliss interaction score
[4]	-0.0792
[5]	-0.053
[6]	0.0759
[7]	0.0982
